This assay deals with T1, TNF-α (Homo sapiens, UniProt P01375).
T1 construct: Human TNF-α recombinant protein (Peprotech)
Description: SPR (Biacore T200, hTNF-α immobilized on CM5); BLI gave KD […]; TNF-α-TNFR1 ELISA IC50 […]. Format: binding.

T1 sequence (P01375 77-233): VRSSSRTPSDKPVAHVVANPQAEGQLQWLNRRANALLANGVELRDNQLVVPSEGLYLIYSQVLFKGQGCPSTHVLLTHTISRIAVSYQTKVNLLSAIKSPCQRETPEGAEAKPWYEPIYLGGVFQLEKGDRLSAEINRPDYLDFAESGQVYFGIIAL

The term Kd denotes the equilibrium constant for the complex coming apart. A high value points to lower affinity. For the molecule `Cc1cc(O)c2c(c1)C(=O)c1cc(O)cc(O)c1C2=O` [emodin, 1,3,8-trihydroxy-6-methylanthraquinone], the Kd is about 26.5 µM.

For the origin of these results see paper PMC11896996, “Emodin mitigates rheumatoid arthritis through direct binding to TNF-α” (Frontiers in Pharmacology, 2025).
